Assay results published in PubChem BioAssay (NCI).
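Grown in 96-well plates, cells were treated for 48 hours with each compound at five concentrations. Insufficient inhibition: endpoint recorded as highest concentration tested. GI50 is the concentration that inhibits growth by half. The concentration for full growth arrest is given as TGI.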

Key:
Test in all cases: inhibition of tumour cell growth, NCI panel, 48 h
786-0 renal = system: 786-0 renal
A498 renal = system: A498 renal
A549 NSCLC = system: A549 NSCLC
ACHN renal = system: ACHN renal
BT-549 breast = system: BT-549 breast
CAKI-1 renal = system: CAKI-1 renal
CCRF-CEM leukemia = system: CCRF-CEM leukemia
COLO 205 colon = system: COLO 205 colon
DU-145 prostate = system: DU-145 prostate
EKVX NSCLC = system: EKVX NSCLC
HCC-2998 colon = system: HCC-2998 colon
HCT-116 colon = system: HCT-116 colon
HCT-15 colon = system: HCT-15 colon
HL-60(TB) leukemia = system: HL-60(TB) leukemia
HOP-62 NSCLC = system: HOP-62 NSCLC
HOP-92 NSCLC = system: HOP-92 NSCLC
HS 578T breast = system: HS 578T breast
HT29 colon = system: HT29 colon
IGROV1 ovarian = system: IGROV1 ovarian
K-562 leukemia = system: K-562 leukemia
KM12 colon = system: KM12 colon
LOX IMVI melanoma = system: LOX IMVI melanoma
M14 melanoma = system: M14 melanoma
MALME-3M melanoma = system: MALME-3M melanoma
MDA-MB-231 breast = system: MDA-MB-231 breast
MDA-MB-435 = system: MDA-MB-435
MOLT-4 leukemia = system: MOLT-4 leukemia
NCI-H226 lung = system: NCI-H226 lung
NCI-H23 lung = system: NCI-H23 lung
NCI-H460 lung = system: NCI-H460 lung
NCI-H522 lung = system: NCI-H522 lung
NCI/ADR-RES ovarian = system: NCI/ADR-RES ovarian
OVCAR-3 ovarian = system: OVCAR-3 ovarian
OVCAR-4 ovarian = system: OVCAR-4 ovarian
OVCAR-5 ovarian = system: OVCAR-5 ovarian
OVCAR-8 ovarian = system: OVCAR-8 ovarian
PC-3 prostate = system: PC-3 prostate
RPMI-8226 leukemia = system: RPMI-8226 leukemia
RXF 393 renal = system: RXF 393 renal
SF-268 CNS = system: SF-268 CNS
SF-295 CNS = system: SF-295 CNS
SF-539 CNS = system: SF-539 CNS
SK-MEL-2 melanoma = system: SK-MEL-2 melanoma
SK-MEL-28 melanoma = system: SK-MEL-28 melanoma
SK-MEL-5 melanoma = system: SK-MEL-5 melanoma
SK-OV-3 ovarian = system: SK-OV-3 ovarian
SN12C renal = system: SN12C renal
SNB-19 CNS = system: SNB-19 CNS
SNB-75 CNS = system: SNB-75 CNS
SW-620 colon = system: SW-620 colon
TK-10 renal = system: TK-10 renal
U251 CNS = system: U251 CNS
UACC-257 melanoma = system: UACC-257 melanoma
UACC-62 melanoma = system: UACC-62 melanoma
UO-31 renal = system: UO-31 renal

## C=C1CC2(OC1=O)C(=O)N(C)c1ccc(I)cc12 (centres undefined)
786-0 renal
  GI50: 1650 nM
  TGI: 3.18 µM
A498 renal
  GI50: 2500 nM
  TGI: 10.2 µM
A549 NSCLC
  GI50: 6.23 µM
  TGI: 22.5 µM
ACHN renal
  GI50: 624 nM
  TGI: 1830 nM
BT-549 breast
  GI50: 1560 nM
  TGI: 4.19 µM
CAKI-1 renal
  GI50: 836 nM
  TGI: 2790 nM
CCRF-CEM leukemia
  GI50: 1060 nM
  TGI: > 100 µM
COLO 205 colon
  GI50: 841 nM
  TGI: 2170 nM
DU-145 prostate
  GI50: 941 nM
  TGI: 2270 nM
EKVX NSCLC
  GI50: 1660 nM
  TGI: 8.15 µM
HCC-2998 colon
  GI50: 2690 nM
  TGI: 7.04 µM
HCT-116 colon
  GI50: 348 nM
  TGI: 1420 nM
HCT-15 colon
  GI50: 583 nM
  TGI: 1970 nM
HL-60(TB) leukemia
  GI50: 337 nM
  TGI: 1540 nM
HOP-62 NSCLC
  GI50: 12.9 µM
  TGI: 27.7 µM
HOP-92 NSCLC
  GI50: 659 nM
  TGI: 2690 nM
HS 578T breast
  GI50: 3.26 µM
  TGI: > 22.7 µM
HT29 colon
  GI50: 1030 nM
IGROV1 ovarian
  GI50: 1230 nM
  TGI: 4.56 µM
K-562 leukemia
  GI50: 1310 nM
  TGI: > 23.7 µM
KM12 colon
  GI50: 3.37 µM
  TGI: 8.55 µM
LOX IMVI melanoma
  GI50: 1140 nM
  TGI: 2520 nM
M14 melanoma
  GI50: 1490 nM
  TGI: 3.03 µM
MALME-3M melanoma
  GI50: 272 nM
  TGI: 1930 nM
MDA-MB-231 breast
  GI50: 1810 nM
  TGI: 5.31 µM
MDA-MB-435
  GI50: 1570 nM
  TGI: 5.49 µM
MOLT-4 leukemia
  GI50: 548 nM
  TGI: 3.45 µM
NCI-H226 lung
  GI50: 2310 nM
  TGI: 9.9 µM
NCI-H23 lung
  GI50: 1740 nM
  TGI: 4.58 µM
NCI-H460 lung
  GI50: 2750 nM
  TGI: 11.1 µM
NCI-H522 lung
  GI50: 444 nM
  TGI: 1800 nM
NCI/ADR-RES ovarian
  GI50: 1850 nM
  TGI: 4.68 µM
OVCAR-3 ovarian
  GI50: 422 nM
  TGI: 1430 nM
OVCAR-4 ovarian
  GI50: 1270 nM
  TGI: 5.43 µM
OVCAR-5 ovarian
  GI50: 2130 nM
  TGI: 4.84 µM
OVCAR-8 ovarian
  GI50: 1760 nM
  TGI: 4.9 µM
PC-3 prostate
  GI50: 2290 nM
  TGI: 7.86 µM
RPMI-8226 leukemia
  GI50: 558 nM
  TGI: 2530 nM
RXF 393 renal
  GI50: 481 nM
  TGI: 1180 nM
SF-268 CNS
  GI50: 2010 nM
  TGI: 5.01 µM
SF-295 CNS
  GI50: 2300 nM
  TGI: 8.16 µM
SF-539 CNS
  GI50: 1380 nM
  TGI: 2800 nM
SK-MEL-2 melanoma
  GI50: 2160 nM
  TGI: 6.28 µM
SK-MEL-28 melanoma
  GI50: 1730 nM
  TGI: 3.6 µM
SK-MEL-5 melanoma
  GI50: 2260 nM
  TGI: 6.37 µM
SK-OV-3 ovarian
  GI50: 9.95 µM
  TGI: 22.5 µM
SN12C renal
  GI50: 1710 nM
  TGI: 4.02 µM
SNB-19 CNS
  GI50: 6.98 µM
  TGI: 20.2 µM
SNB-75 CNS
  GI50: 3.69 µM
  TGI: 12.7 µM
SW-620 colon
  GI50: 566 nM
  TGI: 2040 nM
TK-10 renal
  GI50: 1440 nM
  TGI: 3.17 µM
U251 CNS
  GI50: 1810 nM
  TGI: 5.21 µM
UACC-257 melanoma
  GI50: 909 nM
  TGI: 2490 nM
UACC-62 melanoma
  GI50: 1250 nM
  TGI: 2690 nM
UO-31 renal
  GI50: 622 nM
  TGI: 2030 nM
